From PMC8901748, “A novel prostaglandin E receptor 4 (EP4) small molecule antagonist induces articular cartilage regeneration” (Cell Discovery, 2022)

Assays:
[1] = Preliminary pharmacokinetic studies in CD1 mice; format: in vivo
Description: To evaluate the preclinical pharmacokinetic (PK) profiles of compound HL-43 and HL-66, 36 male CD1 mice were randomly divided into four groups for PK studies. […] Blood samples were collected at 0.083, 0.25, 0.5, 1, 2, 4, 8, 12, and 24 h after administration (n = 3). Then the whole blood was centrifuged at 5500 × g for 15 min at 4 °C. After suitable sample preparation, the concentration of HL-43 and HL-66 in plasma sample was determined by Agilent HPLC-MS/MS system (Agilent Technologies, USA). Pharmacokinetic parameters were calculated by WinNonlin software version 7.0 based on non-compartmental analysis (Pharsight Corporation, Mountain View, USA). Mean plasma concentration-time curves were plotted by GraphPad Prism 7.0 (GraphPad Software Inc., CA, USA).

[2] = tested on: human articular cartilage explants; assay: Human articular cartilage explant culture (S.O. staining, DMMB assay, qRT-PCR, immunohistochemistry); format: cell-based
From the text: Human articular cartilage explants of OA patients undergoing total knee replacement surgery were collected (3 mm × 3 mm), with the approval of the Human Ethics Committee of Shanghai Sixth People’s Hospital (2021-048). The full thickness cartilage tissue samples were harvested from tibia plateau avoiding subchondral bone. We control the quality of the explants according to the principle mentioned below. (1) The human articular cartilage explants were harvested from the relatively intact region of the tibia plateau. (2) The explants from different patients were cut from the same position of tibia plateau avoiding subchondral bone. (3) The explants were cut in the size of 3 mm × 3 mm for the DMMB assay and the S.O. staining. (4) To avoid inter-patient and intra-patient sample heterogeneous, explants used within the same drug experiment (vehicle and treatment) must be collected in locations in close proximity and from the same patient. Each explant in the groups that treated with the same drug was from the same patient. The cartilage explants for Safranin-O/Fast-green (S.O.) staining and immunofluorescence were fixed in 4% paraformaldehyde (PFA) (wt/vol) overnight at 4 °C, embedded in paraffin, sliced (7 μm) and mounted on positively charged slides. The cartilage explants (3 mm × 3 mm) for DMMB assay and S.O. staining were harvested and placed in 24-well plates and cultured in 1 ml of serum-free F12 culture media for 24 h. n ≥ 4 patients were assessed. The media was then replaced with F12 culture media containing serum, added 1 ng/ml IL-1β, Celecoxib, Grapiprant, HL-43, and explants were cultured for a further 7 days. The culture media was collected for the release of glycosaminoglycans. To quantify GAGs, media were mixed with DMMB in formate buffer and absorbance at 535 nm was determined using a Spectramax plate reader (Molecular Devices, Sunnyvale, CA). […] We calculated the proteoglycan staining area using Image J with a region of interest of a 1 × 1 mm square, drawn at the edge of the cartilage surface under 10× objective. […]

[3] = tested on: 4 × 48-p89-Luc (Sox9 binding enhancer, Col2a1 minimal promoter) in ATDC5 cells; assay: 4 × 48-p89-Luc luciferase reporter assay; format: cell-based, mouse
Description: (§1) Six firefly luciferase reporters were used in the Luciferase assay, including CRE-Luc (PathDetect CRE cis-Reporting System; Stratagene, La Jolla CA) driven by a basic promoter (TATA box) plus four repeats of CRE; Sox9 promoter-Luc contains human SOX9 proximal promoter region (−1034 bp to +67 bp)[45]; 4 × 48-p89-Luc, mouse Col2a1 minimal promoter. AP-1-Luc, Nf-κb-Luc, STAT-Luc were obtained from Stratagene. Chondrocytes were cultured in 24-well plates and 300 ng firefly luciferase reporter constructs were transiently transfected using transfection reagent TransExellent-DNA (Cenji Biotech Inc, China) following manufacturer’s instruction, and 15 ng of the Copia-Renilla luciferase reporter was co-transfected as a normalization control. Cells were treated with the indicated reagents for 48 h after transfection. The Dual-Luciferase measurements were performed in triplicate using the Luciferase assay kit (Promega) and a LUMIstar Omega luminometer (BMG Labtech, Mornington, Australia).

Nf-κb-Luc in ATDC5 cells = assay: NF-κB-Luc luciferase reporter assay; format: cell-based, mouse; settings: 2 ng/ml IL-1β, 30 μM HL-43, 6 h
Description: as §1

[4] = tested on: cAMP in primary chondrocytes; assay: cAMP assay; format: cell-based; settings: primary mouse chondrocytes, 2 h
Description: The cAMP concentration of primary chondrocytes was detected by cAMP dynamic kit (Cisbio, France) following the manufacturer’s instructions. cAMP standards were diluted according to the kit instructions. Cells were treated with HL-43 for 2 h and the relative fold change of cAMP was determined by comparing with the cAMP standard curve.

C[C@H](NC(=O)c1c(-c2ccccc2)nnn1CCOc1ccc(F)cc1)c1ccc(C(=O)O)cc1 [HL-43]
AUC0-∞ ([1]; I.V. (5 mg/kg)): 917.2 ng·h/mL
C0 ([1]; I.V. (5 mg/kg)): 1613.6 ng/mL
CL ([1]; I.V. (5 mg/kg)): 18.3 mL/min/kg
Vd ([1]; I.V. (5 mg/kg)): 6.3 L/kg
t1/2 ([1]; I.V. (5 mg/kg)): 4.0 h
AUC0-∞ ([1]; P.O. (1 mg/kg)): 1076.1 ng·h/mL
CL ([1]; P.O. (1 mg/kg)): 76.7 mL/min/kg
Cmax ([1]; P.O. (1 mg/kg)): 270.2 ng/mL
Vd ([1]; P.O. (1 mg/kg)): 21.8 L/kg
t1/2 ([1]; P.O. (1 mg/kg)): 3.3 h
Bioavailability ([1]; oral): 23.7%
Percentage area of proteoglycan by S.O. staining ([2]; human OA cartilage explants, 1 week): increased with HL-43 treatment in a dose-dependent manner
Immunohistochemistry of ACAN, SOX9, MMP13, COLX ([2]; human cartilage explants): inducted anabolic factors (ACAN and SOX9), and suppressed catabolic factor (MMP13), and hypertrophic marker (COLX)
Expression of anabolic factors (COL2A1, ACAN, SOX9) and catabolic factor (MMP13), qRT-PCR ([2]; human explants, 1 ng/ml IL-1β, 24 h, Celecoxib 10 μM, Grapiprant and HL-43 30 μM): best efficacy
4 × 48-p89-Luc reporter activity [3]: dose-dependently increased
NF-κB luciferase reporter activity (Nf-κb-Luc in ATDC5 cells): not AP-1 or NF-κB
cAMP production [4]: dose-dependently induced cAMP production
